Data set [1] concerns Enterococcus faecalis (VRE) E8 VanA. Put plainly: MIC, agar dilution (BSAC guidelines). The settings on record: Table 2, E. faecalis (VRE) E8 VanA, read-out: Minimum inhibitory concentration (MIC). In kind it is cell-based. The protocol:
(§1) In example experiments miconazole nitrate, was dissolved in methanol and econazole nitrate and clotrimazole were dissolved in DMSO and methanol respectively. Other solvents that may be used include caster oil, pyridine, DMSO and 0.9% saline. For IV administration agents may be solubilised in polyethoxylated caster oil, or cyclodextrins such as sulfobutylether7-βcyclodextrin or hydroxypropyl-β-cyclodextrin and lactic acid. Minimum inhibitory concentrations (MICs) of a range of clinical and control bacterial organisms were measured according to BSAC (British Society for Antimicrobial Chemotherapy) guidelines, described briefly as follows;
(§2) Preparation of Agar Plates and Broths
(§3) Stock solutions of each agent were prepared using the formula:
(§4) Where P=μg of active compound per mg (μg/mg) • V=volume required (mL) • C=final concentration of solution (mg/L) • W=weight of agent (mg) to be dissolved in volume V (mL)
(§5) Stock solutions were prepared at concentrations of 1000 mg/L and 100 mg/L. The appropriate amounts of each stock solution were added to separate Petri dishes give the following final concentrations (after the addition of 20 mL molten agar): 128, 64, 32, 16, 8, 4, 2, 1, 0.5, 0.25, 0.12, 0.06, 0.03, 0.015 mg/L.
(§6) Volumes (20 mL) of cooled molten IST agar (oxoid) was added to each Petri dish and mixed by swirling.
(§7) After drying, the plates were stored at 4° C. and protected from light. Plates were used on the day of preparation.
(§8) The test organisms were grown overnight in 5 mL IST broth. Using a dilution in 0.9% saline of 1:500 for Gram-negative organisms and 1:100 for Gram-positive organisms, the appropriate agar plates were inoculated using a multipoint inoculator.
(§9) Plates were incubated at 37° C. in air for 18-20 hours.
(§10) The MIC is the minimum amount of an antibiotic at which there is no visible growth of bacteria. Tiny single colonies or faint hazes were not counted as growth.
In general terms: In agar dilution the substance is mixed into plates at graded concentrations.

Data set [2] deals with Enterococcus faecium (VRE) E15 VanA ATCC 4147. As to the kind of experiment: MIC, agar dilution (BSAC guidelines). The following applies: Table 2, E. faecium (VRE) E15 VanA ATCC 4147, read-out: Minimum inhibitory concentration (MIC). In kind it is cell-based. As for the experimental part: as §1, §2, §3, §4, §5, §6, §7, §8, §9, §10
The subject of data set [3] is Enterococcus faecium (VRE) E19 UAA/522 VanB. As to the kind of experiment: MIC, agar dilution (BSAC guidelines). The following applies: Table 2, E. faecium (VRE) E19 UAA/522 VanB, read-out: Minimum inhibitory concentration (MIC). In kind it is cell-based. As for the experimental part:
as §1, §2, §3, §4, §5, §6, §7, §8, §9, §10

Data set [4] concerns Enterococcus faecium (VRE) NCTC 7171. As to the kind of experiment: MIC, agar dilution (BSAC guidelines). The settings on record: Table 2, E. faecium (VRE) NCTC 7171, read-out: Minimum inhibitory concentration (MIC). In kind it is cell-based. The protocol:
as §1, §2, §3, §4, §5, §6, §7, §8, §9, §10

Data set [5] relates to Enterococcus faecium (VRE) VanR B145344C LFE. As to the kind of experiment: MIC, agar dilution (BSAC guidelines). The following applies: Table 2, E. faecium (VRE) VanR B145344C LFE, read-out: Minimum inhibitory concentration (MIC). It is filed as cell-based. The protocol:
as §1, §2, §3, §4, §5, §6, §7, §8, §9, §10

In data set [6] the test system is Escherichia coli NCTC 10418. Put plainly: MIC, agar dilution (BSAC guidelines). In kind it is cell-based. The settings on record: NCTC10418, Table 2, E. coli NCTC 10418, read-out: Minimum inhibitory concentration (MIC). As for the experimental part: as §1, §2, §3, §4, §5, §6, §7, §8, §9, §10
In data set [7] the test system is Pseudomonas aeruginosa NCTC 10662. Put plainly: MIC, agar dilution (BSAC guidelines). It is filed as cell-based. The following applies: NCTC10662, Table 2, P. aeruginosa NCTC 10662, read-out: Minimum inhibitory concentration (MIC). As for the experimental part: as §1, §2, §3, §4, §5, §6, §7, §8, §9, §10
In data set [8] the test system is Staphylococcus epidermidis ATCC 1228. Put plainly: MIC, agar dilution (BSAC guidelines). The settings on record: ATCC1228, Table 2, S. epidermidis ATCC 1228, read-out: Minimum inhibitory concentration (MIC). It is filed as cell-based. The protocol: as §1, §2, §3, §4, §5, §6, §7, §8, §9, §10
Data set [9] deals with VISA, strain USA/VISA 5827. Put plainly: MIC, agar dilution (BSAC guidelines). In kind it is cell-based. The following applies: Staphylococcus aureus, Table 2, read-out: Minimum inhibitory concentration (MIC). As for the experimental part: as §1, §2, §3, §4, §5, §6, §7, §8, §9, §10
The test system of data set [10] is VISA, strain USA/VISA 5836. As to the kind of experiment: MIC, agar dilution (BSAC guidelines). In kind it is cell-based. The settings on record: Staphylococcus aureus, Table 2, read-out: Minimum inhibitory concentration (MIC). As for the experimental part:
as §1, §2, §3, §4, §5, §6, §7, §8, §9, §10

Data set [11] relates to VISA, strain VISA 3900 UK. As to the kind of experiment: MIC, agar dilution (BSAC guidelines). In kind it is cell-based. The following applies: Staphylococcus aureus, Table 2, read-out: Minimum inhibitory concentration (MIC). As for the experimental part: as §1, §2, §3, §4, §5, §6, §7, §8, §9, §10
Data set [12] concerns strains of Staphylococci and Enterococci with reduced susceptibility to vancomycin. Put plainly: Growth inhibition, summary of MIC testing. In kind it is cell-based. The settings on record: summary in words. As for the experimental part:
as §1, §5, §8, §9, §10

The conditions of data set [13]: in vivo; cited from earlier work.

Values after ≈ are worked out from the molar mass of the structure shown.

With `CC(=O)N1CCN(c2ccc(OCC3COC(Cn4ccnc4)(c4ccc(Cl)cc4Cl)O3)cc2)CC1` (centres unmarked) [Ketoconazole], the MIC was > 256 µg/mL in [1]; 16 µg/mL (≈ 30.1 µM) in data set [2]; 128 µg/mL (≈ 241 µM) in data set [3]; 128 µg/mL (≈ 241 µM) in data set [4]; 128 µg/mL (≈ 241 µM) in data set [5]; > 256 µg/mL in data set [6]. The MIC was > 256 µg/mL in data set [7]; 64 µg/mL (≈ 120 µM) in data set [8]; 64 µg/mL (≈ 120 µM) in [9]; 64 µg/mL (≈ 120 µM) in data set [10]; 64 µg/mL (≈ 120 µM) in data set [11]. Also, in data set [12], the “activity against strains of Staphylococci and Enterococci with reduced susceptibility to vancomycin” value is “did not show this activity”.
As for `c1ccc(-c2ccc(C(c3ccccc3)n3ccnc3)cc2)cc1` (centres unmarked) [Bifonazole], the MIC in data set [1], in data set [2], in data set [3], in data set [4], in data set [5] and in [6] was > 128 µg/mL throughout. The MIC in [7], in data set [8], in data set [9], in data set [10] and in [11] was > 128 µg/mL in each case. For the same compound, the “activity against strains of Staphylococci and Enterococci with reduced susceptibility to vancomycin” value in [12] is reported as “did not show this activity”.
As for `OC(Cn1cncn1)(Cn1cncn1)c1ccc(F)cc1F` [Fluconazole], the MIC in data set [1], in [2], in data set [3], in data set [4], in data set [5] and in data set [6] was > 128 µg/mL each time. The MIC in data set [7], in [8], in data set [9], in [10] and in data set [11] was > 128 µg/mL throughout. For the same compound, the “activity against strains of Staphylococci and Enterococci with reduced susceptibility to vancomycin” value in [12] was “did not show this activity”.
For `Clc1ccc(COC(Cn2ccnc2)c2ccc(Cl)cc2Cl)cc1` (centres unmarked) [econazole nitrate], in [13], the systemic absorption entry was “extremely low” and the “topical dose recovered in the urine or faeces” value was “Less than 1%”.

Source of the values: patent publication US20100144626A1, “Treatment of Multi-Drug Resistant Bacterial Infections” (priority 2006, published 2010).
